Results from the supplement of paper PMC10307832.

Key:
Test in all cases: relative viability (nuclei count vs DMSO), 5 days (fraction); higher = more cells survive
Irinotecan + Navitoclax = compound: CCc1c2c(nc3ccc(OC(=O)N4CCC(N5CCCCC5)CC4)cc13)-c1cc3c(c(=O)n1C2)COC(=O)[C@]3(O)CC [Irinotecan] + CC1(C)CCC(c2ccc(Cl)cc2)=C(CN2CCN(c3ccc(C(=O)NS(=O)(=O)c4ccc(N[C@H](CCN5CCOCC5)CSc5ccccc5)c(S(=O)(=O)C(F)(F)F)c4)cc3)CC2)C1 [Navitoclax] (partner 0.5 µM)
Outline: (§1)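 Lung cancer cell lines were pin-tool dosed in 1536-well plates on the day after seeding, with either a lone drug or a fixed anchor-drug dose plus five library-drug doses (not always all listed) in √10 steps. Nuclei were counted on 4× images after 5 days. Relative viability is the ratio of treated-well to vehicle-well nuclei counts, with each value a median of duplicate plates.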

Irinotecan + Pemetrexed = compound: CCc1c2c(nc3ccc(OC(=O)N4CCC(N5CCCCC5)CC4)cc13)-c1cc3c(c(=O)n1C2)COC(=O)[C@]3(O)CC [Irinotecan] + Nc1nc2[nH]cc(CCc3ccc(C(=O)N[C@@H](CCC(=O)O)C(=O)O)cc3)c2c(=O)[nH]1 [Pemetrexed] (partner 0.2 µM)
Outline: as §1

Irinotecan + Palbociclib = compound: CCc1c2c(nc3ccc(OC(=O)N4CCC(N5CCCCC5)CC4)cc13)-c1cc3c(c(=O)n1C2)COC(=O)[C@]3(O)CC [Irinotecan] + CC(=O)c1c(C)c2cnc(Nc3ccc(N4CCNCC4)cn3)nc2n(C2CCCC2)c1=O [Palbociclib] (partner 0.5 µM)
Outline: as §1

RU-SKI 43 + Dasatinib = compound: CC[C@@H](C)CNCC(=O)N1CCC2=C([C@@H]1COC3=CC=CC(=C3)C)C=CS2 [RU-SKI 43] + Cc1nc(Nc2ncc(C(=O)Nc3c(C)cccc3Cl)s2)cc(N2CCN(CCO)CC2)n1 [Dasatinib] (partner 0.075 µM)
Outline: as §1

Cell Line | relative viability (Irinotecan + Navitoclax; first compound 0.6325 µM) | relative viability (Irinotecan + Navitoclax; first compound 2 µM) | relative viability (Irinotecan + Navitoclax; first compound 6.325 µM) | relative viability (Irinotecan + Navitoclax; first compound 20 µM) | relative viability (Irinotecan + Pemetrexed; first compound 0.6325 µM) | relative viability (Irinotecan + Pemetrexed; first compound 2 µM) | relative viability (Irinotecan + Pemetrexed; first compound 6.325 µM) | relative viability (Irinotecan + Pemetrexed; first compound 20 µM) | relative viability (Irinotecan + Palbociclib; first compound 0.6325 µM) | relative viability (Irinotecan + Palbociclib; first compound 2 µM) | relative viability (Irinotecan + Palbociclib; first compound 6.325 µM) | relative viability (Irinotecan + Palbociclib; first compound 20 µM) | relative viability (RU-SKI 43 + Dasatinib; first compound 0.1 µM) | relative viability (RU-SKI 43 + Dasatinib; first compound 0.3162 µM) | relative viability (RU-SKI 43 + Dasatinib; first compound 1 µM) | relative viability (RU-SKI 43 + Dasatinib; first compound 3.162 µM) | relative viability (RU-SKI 43 + Dasatinib; first compound 10 µM)
EMC-BAC-2 | 0.705 | 0.36 | 0.202 | 0.226 | 0.389 | 0.393 | 0.312 | 0.244 | 0.387 | 0.346 | 0.337 | 0.248 | 0.334 | 0.299 | 0.362 | 0.317 | 0.296
EPLC-272H | 0.658 | 0.17 | 0.144 | 0.209 | 0.351 | 0.321 | 0.292 | 0.268 |  | 0.22 | 0.304 | 0.264 | 0.267 | 0.351 | 0.317 | 0.317 | 0.321
H3255 | 0.352 | 0.279 | 0.158 | 0.227 | 0.529 | 0.603 | 0.393 | 0.37 | 0.304 | 0.301 | 0.292 | 0.336 | 0.364 | 0.387 | 0.578 | 0.393 | 0.309
HARA | 0.658 | 0.106 | 0.123 | 0.111 | 0.211 | 0.294 | 0.182 | 0.192 | 0.26 | 0.184 | 0.225 | 0.232 | 0.288 | 0.317 | 0.303 | 0.34 | 0.156
HCC-15 | 0.5 | 0.209 | 0.147 | 0.167 | 0.18 | 0.188 | 0.207 | 0.189 | 0.41 | 0.346 | 0.182 | 0.141 | 0.709 | 0.635 | 0.689 | 0.633 | 0.64
HCC-44 | 0.904 | 0.232 | 0.231 | 0.27 | 0.617 | 0.721 | 0.549 | 0.488 | 0.841 | 0.631 | 0.484 | 0.532 |  |  |  |  | 
HCC-78 | 0.75 | 0.525 | 0.202 | 0.191 | 0.87 | 0.99 | 0.897 | 0.94 | 0.474 | 0.363 | 0.37 | 0.347 | 0.457 | 0.349 | 0.607 | 0.319 | 0.369
HCC-366 | 0.79 | 0.158 | 0.0415 | 0.0387 | 0.15 | 0.192 | 0.0569 | 0.0611 | 0.228 | 0.18 | 0.0611 | 0.0667 | 0.61 | 0.955 | 0.715 | 0.698 | 0.476
HCC-827 | 0.591 | 0.278 | 0.244 | 0.237 | 0.264 | 0.236 | 0.248 | 0.206 | 0.438 | 0.304 | 0.167 | 0.206 | 0.249 | 0.267 | 0.319 | 0.298 | 0.331
HOP-62 | 0.624 | 0.598 | 0.176 | 0.177 | 0.0967 | 0.337 | 0.17 | 0.166 | 0.211 | 0.202 | 0.187 | 0.22 | 0.741 | 0.709 | 0.875 | 0.641 | 0.603
